Assay results taken from patent US20200000916A1, “REGIONALLY ACTIVATED DRUG DELIVERY NANOPARTICLES” (The Regents of the University of California, priority 2013, published 2020).
Entries after “also recorded” stand apart in the source; their conditions may differ.

Test system: PTK2 kidney epithelial cells
Test: Cellular localization by live fluorescence microscopy
Type: cell-based
Details: 2 μM, 2 hours incubation, before/without 365 nm light exposure; hydrochloride
Description: The intracellular localization of the DOX-PCB nanoparticles and pure DOX was studied using the PTK2 epithelial cell line. These cells were used because they are susceptible to DOX and remain flat during mitosis, allowing for enhanced visualization of the nuclear region. This visualization capability was important since one of the main therapeutic modes of action for DOX is through DNA intercalation. The DOX-PCB nanoparticles and pure DOX are both naturally fluorescent which allowed them to be easily tracked through the cell. The PTK2 cells were plated in glass bottom petri dishes (MatTek Corporation, Ashland, Mass.) and were incubated in advanced MEM Media from Gibco (Invitrogen, Grand Island, N.Y.) with 2% fetal bovine serum, nonessential amino acids, 110 mg/L sodium pyruvate, and without penicillin-streptomycin or L-Glutamine.
A 1 ml media solution of DOX-PCB nanoparticles was prepared by first adding 10×DPBS to a 4.1 μM solution of DOX-PCB nanoparticles in water to achieve a 1×DPBS concentration, and then adding the resulting solution to a phenol-red free formulation of the advanced MEM media described above to achieve a final DOX-PCB content of 2 μM. This spiked media sample was then added to the glass bottom petri dish along with PTK2 cells seeded which had the previous incubation media removed. […]

Compound: COc1cccc2c1C(=O)c1c(O)c3c(c(O)c1C2=O)C[C@@](O)(C(=O)CO)C[C@@H]3O[C@H]1C[C@H](N)[C@H](O)[C@H](C)O1.Cl [DOX, Doxorubicin hydrochloride]
- intracellular localization: strongly associate with the cell nuclei; also recorded: associate strongly with the cell nuclei
